Reference: PubChem BioAssay (NCI)
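Five compound concentrations were applied to cells in 96-well plates for 48 hours; endpoints were derived by simple linear interpolation of the resulting dose-response curve. TGI denotes the concentration required for complete inhibition of growth.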

Key:
Assay in all cases: NCI tumour cell line growth inhibition, 48 h
[1] = test system: A549 NSCLC
[2] = test system: OVCAR-3 ovarian
[3] = test system: SNB-19 CNS
[4] = test system: 786-0 renal
[5] = test system: SN12C renal
[6] = test system: RXF 393 renal
[7] = test system: MDA-MB-231 breast
[8] = test system: UO-31 renal
[9] = test system: SW-620 colon
[10] = test system: SK-MEL-5 melanoma
[11] = test system: SK-MEL-28 melanoma
[12] = test system: HS 578T breast
[13] = test system: SF-268 CNS
[14] = test system: U251 CNS
[15] = test system: ACHN renal
[16] = test system: TK-10 renal
[17] = test system: MDA-N
[18] = test system: KM12 colon
[19] = test system: MCF7 breast
[20] = test system: OVCAR-5 ovarian
[21] = test system: OVCAR-4 ovarian
[22] = test system: MOLT-4 leukemia
[23] = test system: MDA-MB-435
[24] = test system: NCI-H522 lung
[25] = test system: IGROV1 ovarian
[26] = test system: UACC-257 melanoma
[27] = test system: UACC-62 melanoma
[28] = test system: HT29 colon
[29] = test system: HOP-92 NSCLC
[30] = test system: HCC-2998 colon
[31] = test system: K-562 leukemia
[32] = test system: SR leukemia
[33] = test system: NCI-H226 lung
[34] = test system: SNB-75 CNS
[35] = test system: BT-549 breast
[36] = test system: COLO 205 colon
[37] = test system: T-47D breast
[38] = test system: MALME-3M melanoma
[39] = test system: M14 melanoma
[40] = test system: CCRF-CEM leukemia
[41] = test system: RPMI-8226 leukemia
[42] = test system: NCI-H460 lung
[43] = test system: DU-145 prostate
[44] = test system: SK-MEL-2 melanoma
[45] = test system: HL-60(TB) leukemia
[46] = test system: LOX IMVI melanoma
[47] = test system: HCT-15 colon
[48] = test system: NCI-H23 lung
[49] = test system: OVCAR-8 ovarian
[50] = test system: SF-539 CNS
[51] = test system: HOP-62 NSCLC
[52] = test system: HCT-116 colon
[53] = test system: SF-295 CNS
[54] = test system: PC-3 prostate
[55] = test system: SK-OV-3 ovarian
[56] = test system: CAKI-1 renal
[57] = test system: A498 renal
[58] = test system: EKVX NSCLC

In the case of `CN1CCN(C(=S)N(C(=O)c2cccs2)c2ccccc2)CC1`, the TGI [1] is reported as > 100 µM, the TGI [2] is reported as > 100 µM and the TGI [3] is reported as > 100 µM. For the same compound, the TGI [4] was > 100 µM, the TGI [5] was > 100 µM and the TGI [6] was > 100 µM. The TGI [7] was > 100 µM, the TGI [8] was > 100 µM and the TGI [9] was > 100 µM. The TGI [10] was > 100 µM, the TGI [11] was > 100 µM and the TGI [12] was > 100 µM. For the same compound, the TGI [13] was > 100 µM, the TGI [14] was > 100 µM and the TGI [15] was > 100 µM. The TGI [16] was > 100 µM, the TGI [17] was > 100 µM and the TGI [18] was > 100 µM. For the same compound, the TGI [19] was > 100 µM, the TGI [20] was > 100 µM and the TGI [21] was > 100 µM. The TGI [22] was > 100 µM, the TGI [23] was > 100 µM and the TGI [24] was > 100 µM. The TGI [25] was > 100 µM, the TGI [26] was > 100 µM and the TGI [27] was > 100 µM. The TGI [28] was > 100 µM, the TGI [29] was > 100 µM and the TGI [30] was > 100 µM. The TGI [31] was > 100 µM, the TGI [32] was > 100 µM and the TGI [33] was > 100 µM. For the same compound, the TGI [34] was > 100 µM, the TGI [35] was > 100 µM and the TGI [36] was > 100 µM. The TGI [37] was > 100 µM, the TGI [38] was > 100 µM and the TGI [39] was > 100 µM. The TGI [40] was > 100 µM, the TGI [41] was > 100 µM and the TGI [42] was > 100 µM. For the same compound, the TGI [43] was > 100 µM, the TGI [44] was > 100 µM and the TGI [45] was > 100 µM. The TGI [46] was > 100 µM, the TGI [47] was > 100 µM and the TGI [48] was > 100 µM. For the same compound, the TGI [49] was > 100 µM.
For `[N-]=[N+]=NC1=CC(=O)c2cccc3cccc1c23`, the TGI [1] was > 100 µM, the TGI [2] was > 100 µM and the TGI [3] was > 100 µM. For the same compound, the TGI [4] was > 100 µM, the TGI [5] was > 100 µM and the TGI [6] was 34.5 µM. For the same compound, the TGI [7] was > 100 µM, the TGI [50] was 88 µM and the TGI [8] was > 100 µM. For the same compound, the TGI [9] was > 100 µM, the TGI [10] was 27.8 µM and the TGI [11] was > 100 µM. The TGI [12] was 69.8 µM, the TGI [13] was > 100 µM and the TGI [51] was 48.1 µM. For the same compound, the TGI [14] was 71 µM, the TGI [52] was > 100 µM and the TGI [15] was > 100 µM. For the same compound, the TGI [16] was 88.2 µM, the TGI [17] was > 100 µM and the TGI [18] was > 100 µM. For the same compound, the TGI [19] was > 100 µM, the TGI [20] was > 100 µM and the TGI [21] was > 100 µM. The TGI [22] was > 100 µM, the TGI [23] was > 100 µM and the TGI [25] was 51.8 µM. The TGI [26] was 72.2 µM, the TGI [27] was 42.1 µM and the TGI [28] was > 100 µM. For the same compound, the TGI [29] was 66.7 µM, the TGI [30] was > 100 µM and the TGI [31] was > 100 µM. The TGI [53] was 84.3 µM, the TGI [32] was > 100 µM and the TGI [54] was > 100 µM. It also gave a TGI [34] of 31 µM, a TGI [35] of 63 µM and a TGI [55] of 35.6 µM. The TGI [36] was > 100 µM, the TGI [37] was > 100 µM and the TGI [38] was > 100 µM. For the same compound, the TGI [39] was 82.8 µM, the TGI [40] was > 100 µM and the TGI [41] was > 100 µM. For the same compound, the TGI [42] was > 100 µM, the TGI [43] was > 100 µM and the TGI [56] was > 100 µM. The TGI [45] was > 100 µM, the TGI [57] was 38.9 µM and the TGI [46] was > 100 µM. For the same compound, the TGI [48] was 82 µM.
With `Cc1nn(C(=O)Cc2ccccc2)c2c1C(c1ccc3ccccc3c1O)SC(N)=N2` (stereo not given) the TGI [1] was > 100 µM, the TGI [3] was > 100 µM and the TGI [5] was > 100 µM. The TGI [7] was > 100 µM, the TGI [50] was > 100 µM and the TGI [8] was > 100 µM. For the same compound, the TGI [9] was > 100 µM, the TGI [10] was > 100 µM and the TGI [11] was > 100 µM. For the same compound, the TGI [12] was > 100 µM, the TGI [13] was > 100 µM and the TGI [51] was > 100 µM. For the same compound, the TGI [52] was > 100 µM, the TGI [15] was > 100 µM and the TGI [16] was > 100 µM. For the same compound, the TGI [17] was > 100 µM, the TGI [18] was > 100 µM and the TGI [19] was > 100 µM. For the same compound, the TGI [22] was > 100 µM, the TGI [23] was > 100 µM and the TGI [24] was > 100 µM. For the same compound, the TGI [25] was > 100 µM, the TGI [26] was > 100 µM and the TGI [58] was > 100 µM. The TGI [27] was > 100 µM, the TGI [28] was > 100 µM and the TGI [30] was > 100 µM. For the same compound, the TGI [31] was > 100 µM, the TGI [53] was > 100 µM and the TGI [32] was > 100 µM. The TGI [33] was > 100 µM, the TGI [54] was > 100 µM and the TGI [34] was > 100 µM. For the same compound, the TGI [35] was > 100 µM, the TGI [55] was > 100 µM and the TGI [36] was > 100 µM. For the same compound, the TGI [37] was > 100 µM, the TGI [39] was > 100 µM and the TGI [40] was 64.2 µM. The TGI [41] was > 100 µM, the TGI [42] was > 100 µM and the TGI [43] was > 100 µM. The TGI [56] was > 100 µM, the TGI [45] was > 100 µM and the TGI [57] was > 100 µM. The TGI [46] was > 100 µM, the TGI [47] was > 100 µM and the TGI [48] was > 100 µM. The TGI [49] was > 100 µM.
